Here are results for one compound from patent US10398692B2, “Terconazole composition and method” (Curatek Pharmaceuticals Holding, Inc., priority 2006, dated 2019).

≈ marks a conversion by molar mass, not a printed value.

For series [1] the following is noted: cited from earlier work.
A short description of series [2]: Solubility of terconazole in water at adjusted pH (Table 1A). In kind it is physicochemical. The conditions noted are these: for solubility: water. From the text: In a related experiment, the solubility of terconazole in water was increased to about 2.9 percent by weight using acetic acid at pH of about 5.

On to `CC(C)N1CCN(c2ccc(OCC3COC(Cn4cncn4)(c4ccc(Cl)cc4Cl)O3)cc2)CC1` (stereo not drawn) [Terconazole, cis-1-[p[[2-(2,4-dichlorophenyl)-2-(1H-1,2,4-triazol-1-ylmethyl)-1,3-dioxolan-4-yl]methoxy]phenyl]-4-isopropylpiperazine], for which, in series [1], the solubility in water result was “about 0.007 percent by weight”. In addition, the solubility (in general, the dissolved amount per volume that the medium holds) in series [2] (aqueous buffer, pH 4.23 adjusted with HCl) amounted to 3400 µg/mL (≈ 6.39 mM); in series [2] (aqueous buffer, pH 4.99 adjusted with acetic acid), 29400 µg/mL (≈ 55.2 mM); in series [2] (pH 7.1, pH not adjusted), 70 µg/mL (≈ 0.131 mM). Moreover, the “solubility of terconazole in water” value in series [2] (using acetic acid at pH of about 5) is on record as “about 2.9 percent by weight”.
